# Reference: article PMC8864869, “A short peptide derived from pigment epithelial-derived factor exhibits an angioinhibitory effect” (BMC Ophthalmology, 2022)
# Where “and” joins values, the source holds several entries; their conditions need not be identical. Equal values may be shown once.
# Key:
# Assay type in all cases: cell-based, human
# HUVECs [1] = test: Endothelial cell capillary-like tube formation assay; conditions: 20 ng/ml VEGF, 10 μM 7-mer, matrigel, 0.5% FBS, 6 h
# Procedure: (§1) Cells were grown in Medium 200 with LSGS (supplement contains 1.9% fetal bovine serum, 3 ng/ml bFGF, 10 μg/ml heparin, 1 μg/ml hydrocortisone, and 10 ng/ml EGF). Culture plates were coated with 2% gelatin. Cells (passages 4–8) were cultured at 37 °C in a humidified atmosphere of 5% CO2. For peptide treatment, HUVECs were cultured in low serum (0.5% FBS) medium containing 20 ng/ml VEGF and 7-mer peptide (20 μM, unless otherwise specified).
# Growth factor-reduced matrigel was pipetted into pre-chilled 24-well plates (150 μl matrigel per well) and polymerized for 45 min at 37 °C. HUVECs (4 × 10^4 per well) in low serum (0.5% FBS) medium were treated with 20 ng/ml VEGF and 7-mer (10 μM) in matrigel coated plates. After 6 h of incubation, tubular structures were photographed. Images were captured using a Cannon camera on a Zeiss inverted microscope with magnification × 40.
# The experiment was repeated three times. Magnification is × 40. b The 7-mer induces HUVEC apoptosis in the presence of VEGF. Cell apoptosis was analyzed using the Annexin V-FITC Apoptosis Detection kit according to the in situ staining protocol after treatment for 16 h. Double staining with an annexin V-FITC and the fluorescent dye Hoechst 33342 was used to visualize the apoptotic cells (green) and nuclei (blue), respectively. […] The percentages of apoptotic cells were quantified. ^aP < 0.005 versus VEGF-treated cells
# HUVECs [2] = test: Annexin V-FITC apoptosis assay in HUVECs; conditions: 20 ng/ml VEGF + peptide (20 μM), 0.5% FBS, 16 h; four independent experiments
# Procedure: as §1
# Cell apoptosis was examined using a TACS annexin V-FITC kit according to the manufacturer’s instructions for in situ staining. The cell numbers were monitored by counterstaining with Hoechst 33342. Afterward, apoptosis was examined and photographed by a Zeiss epifluorescence microscope (× 100, 10 fields/sample). Images were recorded on Zeiss software.
# The experiment was repeated three times. Magnification is × 40. b The 7-mer induces HUVEC apoptosis in the presence of VEGF. Cell apoptosis was analyzed using the Annexin V-FITC Apoptosis Detection kit according to the in situ staining protocol after treatment for 16 h. Double staining with an annexin V-FITC and the fluorescent dye Hoechst 33342 was used to visualize the apoptotic cells (green) and nuclei (blue), respectively. A representative result of four independent experiments is shown. The percentages of apoptotic cells were quantified. ^aP < 0.005 versus VEGF-treated cells
# RPMI8226 cells = tested on: RPMI8226 cells
# Procedure: Human multiple myeloma cells, RPMI8226 were purchased from Bioresource Collection and Research Center (Hsinchu, Taiwan). Cells were cultivated in RPMI1640 medium supplemented with 10% FBS, 50 μg/ml penicillin, 50 μg/ml streptomycin, and 2 mM L-glutamine at 37 °C in a 5% CO2 atmosphere. Cell viability was determined by an MTT assay. […] MTT stock solution added to medium alone was included as a negative control. Aliquots (450 μl) from each sample were transferred to a new well of a 48-well culture plate, 100 μl DMSO added with thorough mixing, and allowed to react at 37 °C for 20 min before reading the absorbance at 570 nm.
substance,measurement,setting,value
"7-mer: PEDF Asp64-Ser70, N-acetylated, C-amidated (Ac-DLYRVRS-NH2; UniProt P36955 64-70, looked up, fragment)",VEGF-stimulated tube-like network of HUVECs,HUVECs [1],marked decrease of the VEGF-stimulated tube-like network
same,apoptotic HUVECs (annexin V-FITC),HUVECs [2],43.0 ± 5.5%
same,cytotoxic effect on RPMI8226 cells in the absence of VEGF,RPMI8226 cells,neither peptide had a significant cytotoxic effect
same,"MTT value, VEGF-induced RPMI8226 cell proliferation, 1 μM peptide","RPMI8226 cells; 10 ng/ml VEGF + 1 μM peptide (lowest concentration), 24 h, mean ± SD",101 ± 1.2%
same,anti-VEGF activity of the 7-mer relative to the 34-mer (MTT),"RPMI8226 cells; 10 ng/ml VEGF + 25 μM peptide, 24 h",~ 1.5 fold
same,"MTT value, VEGF-induced RPMI8226 cell proliferation","RPMI8226 cells; 10 ng/ml VEGF + 25 μM peptide, 24 h, serum-free medium, solvent-treated/untreated cells set as 100%, mean ± SD, three independent experiments",58 ± 4.1% and 57.3% and 54 ± 1.5%
same,dose dependence of cell viability of VEGF-treated RPMI8226 cells,"RPMI8226 cells; 1, 5, 10 and 25 μM peptide with VEGF, MTT",decreased cell viability in a dose-dependent manner
